# Test results published in patent publication US11286268B1, “EIF4E-inhibiting compounds and methods” (EFFECTOR THERAPEUTICS, INC., priority 2019, dated 2022).
# Target: recombinant eIF4E (Homo sapiens (Human), UniProt P06730)
# Test: Fluorescence polarization competition assay for eIF4E binding potency
# Settings: inhibition of eIF4E/EDA-m7GDP-ATTO-550 binding; calculated IC50 values, Table 4B; read-out: IC50
# Procedure, shortened: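 Protein and fluorescent cap-analog probe (EDA-m7GDP-ATTO-550) were mixed first for 5 min, after which serially diluted compound was added to final 75 nM eIF4E, 20 nM probe, 1% DMSO. Reactions equilibrated 30 min at room temperature before polarization was measured.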
# recombinant eIF4E, sequence (P06730 whole entry): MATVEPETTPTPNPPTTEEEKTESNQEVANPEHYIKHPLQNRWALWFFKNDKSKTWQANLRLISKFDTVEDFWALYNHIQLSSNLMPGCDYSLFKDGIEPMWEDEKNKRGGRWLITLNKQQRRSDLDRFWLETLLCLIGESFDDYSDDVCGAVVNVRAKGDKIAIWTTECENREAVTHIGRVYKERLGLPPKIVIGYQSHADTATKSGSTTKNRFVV
row,SMILES,IC50 [nM]
1,Cc1nc2cnc(N3CC4(C3)CN(C3CC(F)(F)C3)C4)c(C#N)c2c(=O)n1CCOc1ccc(Cl)cc1-c1ccnc2c(C(=O)O)csc12 [compound 1475],7.2
2,Cc1nc2cnc(N3CC4(C3)CN(C3C(C)(C)C3(C)C)C4)c(C#N)c2c(=O)n1CCOc1ccc(Cl)cc1-c1ccnc2c(C(=O)O)csc12 [compound 1476],16.2
3,Cc1nc2cnc(N(C)C3CCN(C4CC(F)(F)C4)CC3)c(C#N)c2c(=O)n1CCOc1ccc(Cl)cc1-c1ccnc2c(C(=O)O)csc12 [compound 1477],18.1
4,Cc1nc2cnc(N3C[C@H]4CN(CC(F)F)C[C@H]4C3)c(C#N)c2c(=O)n1CCOc1ccc(Cl)cc1-c1ccnc2c(C(=O)O)csc12 [compound 1478],13
5,Cc1nc2cnc(OC3CCN(CCF)CC3)c(C#N)c2c(=O)n1CCOc1ccc(Cl)cc1-c1ccnc2c(C(=O)O)csc12 [compound 1479],16.7
6,Cc1nc2cnc(C3CCC(F)(F)CC3)c(C#N)c2c(=O)n1CC#Cc1ccc(Cl)cc1-c1ccnc2c(C(=O)O)csc12 [compound 1481],20.8
7,Cc1nc2cnc(C3=CCC(F)(F)CC3)c(C#N)c2c(=O)n1CC#Cc1ccc(Cl)cc1-c1ccnc2c(C(=O)O)csc12 [compound 1482],16.6
8,Cc1nc2cnc(N3CCN(C(C)(C)CF)CC3)c(C#N)c2c(=O)n1CCOc1ccc(Cl)cc1-c1ccnc2c(C(=O)NS(C)(=O)=O)csc12 [compound 1483],13.7
9,Cc1nc2cnc(CC3CCN(CC(F)F)CC3)c(C#N)c2c(=O)n1CCOc1ccc(Cl)cc1-c1ccnc2c(C(=O)O)csc12 [compound 1484],22.9
10,Cc1nc2cnc(CCN(C)CC(F)F)c(C#N)c2c(=O)n1CCOc1ccc(Cl)cc1-c1ccnc2c(C(=O)O)csc12 [compound 1485],22.9
11,Cc1nc2cnc(N3CCN(CCC(F)(F)F)CC3)c(C#N)c2c(=O)n1CC#Cc1ccc(Cl)cc1-c1ccnc2c(C(=O)NS(C)(=O)=O)csc12 [compound 1486],10.7
12,Cc1nc2cnc(N3CCN(CC(F)F)CC3)c(C#N)c2c(=O)n1CC#Cc1ccc(Cl)cc1-c1ccnc2c(C(=O)NS(C)(=O)=O)csc12 [compound 1487],25.4
13,Cc1nc2cnc(N3CCN(CCF)CC3)c(C#N)c2c(=O)n1CC#Cc1ccc(Cl)cc1-c1ccnc2c(C(=O)NS(C)(=O)=O)csc12 [compound 1488],12.3
14,Cc1nc2cnc(N3CCC4(CC3)CCN4CC(F)F)c(C#N)c2c(=O)n1CC#Cc1ccc(Cl)cc1-c1ccnc2c(C(=O)O)csc12 [compound 1490],29.1
15,Cc1nc2cnc(N(C)CCN(C)CC(F)(F)F)c(C#N)c2c(=O)n1CC#Cc1ccc(Cl)cc1-c1ccnc2c(C(=O)O)csc12 [compound 1491],29
16,Cc1nc2cnc(CCN(C)CC(F)F)c(C#N)c2c(=O)n1CC#Cc1ccc(Cl)cc1-c1ccnc2c(C(=O)O)csc12 [compound 1492],20.1
17,Cc1nc2cnc(N3CCN(C4(C)CC(F)(F)C4)CC3)c(C#N)c2c(=O)n1CC#Cc1ccc(Cl)cc1-c1ccnc2c(C(=O)O)csc12 [compound 1493],6.83
18,Cc1nc2cnc(N(C)C3CCN(C4(C#N)CC4)CC3)c(C#N)c2c(=O)n1CC#Cc1ccc(Cl)cc1-c1ccnc2c(C(=O)O)csc12 [compound 1494],24.7
19,Cc1nc2cnc(N(C)C3CCN(C)CC3)c(C#N)c2c(=O)n1CC#Cc1ccc(Cl)cc1-c1ccnc2c(C(=O)O)csc12 [compound 1495],7.09
20,Cc1nc2cnc(N(C)C3CCN(C4CC4)C4(CC4)C3)c(C#N)c2c(=O)n1CC#Cc1ccc(Cl)cc1-c1ccnc2c(C(=O)O)csc12 (centres unmarked) [compound 1496],32.5
21,Cc1nc2cnc(N(C)CCCN(C)CC(F)(F)F)c(C#N)c2c(=O)n1CC#Cc1ccc(Cl)cc1-c1ccnc2c(C(=O)O)csc12 [compound 1497],12.9
22,Cc1nc2cnc(/C=C/CN(C)C)c(C#N)c2c(=O)n1CC#Cc1ccc(Cl)cc1-c1ccnc2c(C(=O)O)csc12 [compound 1498],29.1
23,Cc1nc2cnc(N3CCC34CN(CC(F)F)C4)c(C#N)c2c(=O)n1CC#Cc1ccc(Cl)cc1-c1ccnc2c(C(=O)O)csc12 [compound 1499],27.5
24,Cc1nc2cnc(N3CCC34CCN(CC(F)F)CC4)c(C#N)c2c(=O)n1CC#Cc1ccc(Cl)cc1-c1ccnc2c(C(=O)O)csc12 [compound 1500],17
25,Cc1nc2cnc(N(C)C3CCN(CC(F)(F)F)CC3)c(C#N)c2c(=O)n1CC#Cc1ccc(Cl)cc1-c1ccnc2c(C(=O)NS(C)(=O)=O)csc12 [compound 1501],20.5
26,CCC(F)(F)CN1CCC(N(C)c2ncc3nc(C)n(CC#Cc4ccc(Cl)cc4-c4ccnc5c(C(=O)O)csc45)c(=O)c3c2C#N)CC1 [compound 1502],26.2
27,Cc1nc2cnc(N(C)C3CCN(CCOC(F)F)CC3)c(C#N)c2c(=O)n1CC#Cc1ccc(Cl)cc1-c1ccnc2c(C(=O)O)csc12 [compound 1503],19.2

# Results, then the compound that gave them:
row,IC50 [nM],SMILES
1,13.6,Cc1nc2cnc(N(C)C3CCN(C4(COC(F)F)CC4)CC3)c(C#N)c2c(=O)n1CC#Cc1ccc(Cl)cc1-c1ccnc2c(C(=O)O)csc12 [compound 1504]
2,13,COCCC(CCOC)N(C)c1ncc2nc(C)n(CC#Cc3ccc(Cl)cc3-c3ccnc4c(C(=O)O)csc34)c(=O)c2c1C#N [compound 1505]
3,27.4,Cc1nc2cnc(N(C)C3CCN(C(C)(C)C(C)(F)F)CC3)c(C#N)c2c(=O)n1CC#Cc1ccc(Cl)cc1-c1ccnc2c(C(=O)O)csc12 [compound 1506]
4,16,Cc1nc2cnc(N(C)C3CCN(C(C)(C)C(F)(F)F)CC3)c(C#N)c2c(=O)n1CC#Cc1ccc(Cl)cc1-c1ccnc2c(C(=O)O)csc12 [compound 1507]
5,17.4,Cc1nc2cnc(N(C)C3CCN(C(C)CF)CC3)c(C#N)c2c(=O)n1CC#Cc1ccc(Cl)cc1-c1ccnc2c(C(=O)O)csc12 (centres unmarked) [compound 1508]
6,37.5,Cc1nc2cnc(N3CCN(CCCOC(F)F)CC3)c(C#N)c2c(=O)n1CC#Cc1ccc(Cl)cc1-c1ccnc2c(C(=O)O)csc12 [compound 1509]
7,20.1,Cc1nc2cnc(N3CCN(C4(COC(F)F)CC4)CC3)c(C#N)c2c(=O)n1CC#Cc1ccc(Cl)cc1-c1ccnc2c(C(=O)O)csc12 [compound 1510]
8,23.2,Cc1nc2cnc(N3CCN([C@H]4C[C@@H](OC(F)F)C4)CC3)c(C#N)c2c(=O)n1CC#Cc1ccc(Cl)cc1-c1ccnc2c(C(=O)O)csc12 [compound 1511]
9,12.2,Cc1nc2cnc(N3CC4(C3)CN(C3CCC3)C4)c(C#N)c2c(=O)n1CCOc1ccc(Cl)cc1-c1ccnc2c(C(=O)NS(C)(=O)=O)csc12 [compound 1512]
10,13.4,Cc1nc2cnc(N(C)C3CCN(CCOC(F)F)CC3)c(C#N)c2c(=O)n1CCOc1ccc(Cl)cc1-c1ccnc2c(C(=O)O)csc12 [compound 1513]
11,51.7,Cc1nc2cnc(N(C)C3CCN(C(C)(C)C(F)(F)F)CC3)c(C#N)c2c(=O)n1CCOc1ccc(Cl)cc1-c1ccnc2c(C(=O)O)csc12 [compound 1514]
12,32.1,Cc1nc2cnc(N(C)C3CCN(CC(F)(F)C(F)F)CC3)c(C#N)c2c(=O)n1CCOc1ccc(Cl)cc1-c1ccnc2c(C(=O)O)csc12 [compound 1515]
13,17,Cc1nc2cnc(N3CCN(CC(C)(C)F)CC3)c(C#N)c2c(=O)n1CCOc1ccc(Cl)cc1-c1ccnc2c(C(=O)NS(C)(=O)=O)csc12 [compound 1516]
14,10.7,Cc1nc2cnc(N(C)C3CCN(C(C)C(F)F)CC3)c(C#N)c2c(=O)n1CC#Cc1ccc(Cl)cc1-c1ccnc2c(C(=O)O)csc12 (centres unmarked) [compound 1518]
